Assay results: patent US9309242B2, “Substituted pyrido[2,3-b]pyrazines as FGFR kinase inhibitors” (priority 2011, dated 2016)
Where two headings read alike, the source gives them in different places.

How the values were obtained:
[1] = target: FGFR1 (h) (Homo sapiens, UniProt P11362); assay: FGFR1 (enzymatic assay), TR-FRET; format: biochemical; settings: read-out: FGFR 1 pIC50 (converted)
[2] = target: FGFR2 (h) (Homo sapiens, UniProt P21802); assay: FGFR2 (enzymatic assay), TR-FRET; format: biochemical; settings: enzymatic assay, read-out: FGFR 2 pIC50 (converted)
In short: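 Phosphorylation of 500 nM Btn-Flt3 by human FGFR2 (150 ng/ml) is measured at 0.4 μM ATP. The buffer is 50 mM HEPES pH 7.5 containing 6 mM MnCl2, 1 mM DTT, 0.1 mM Na3VO4 and 0.01% Triton-X-100, and compound is tested at 1% DMSO final.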

[3] = target: FGFR3 (h) (Homo sapiens, UniProt P22607); assay: FGFR3 (enzymatic assay), TR-FRET; format: biochemical; settings: read-out: FGFR 3 pIC50 (converted)
Sequence of FGFR3 (h) (P22607 23-806): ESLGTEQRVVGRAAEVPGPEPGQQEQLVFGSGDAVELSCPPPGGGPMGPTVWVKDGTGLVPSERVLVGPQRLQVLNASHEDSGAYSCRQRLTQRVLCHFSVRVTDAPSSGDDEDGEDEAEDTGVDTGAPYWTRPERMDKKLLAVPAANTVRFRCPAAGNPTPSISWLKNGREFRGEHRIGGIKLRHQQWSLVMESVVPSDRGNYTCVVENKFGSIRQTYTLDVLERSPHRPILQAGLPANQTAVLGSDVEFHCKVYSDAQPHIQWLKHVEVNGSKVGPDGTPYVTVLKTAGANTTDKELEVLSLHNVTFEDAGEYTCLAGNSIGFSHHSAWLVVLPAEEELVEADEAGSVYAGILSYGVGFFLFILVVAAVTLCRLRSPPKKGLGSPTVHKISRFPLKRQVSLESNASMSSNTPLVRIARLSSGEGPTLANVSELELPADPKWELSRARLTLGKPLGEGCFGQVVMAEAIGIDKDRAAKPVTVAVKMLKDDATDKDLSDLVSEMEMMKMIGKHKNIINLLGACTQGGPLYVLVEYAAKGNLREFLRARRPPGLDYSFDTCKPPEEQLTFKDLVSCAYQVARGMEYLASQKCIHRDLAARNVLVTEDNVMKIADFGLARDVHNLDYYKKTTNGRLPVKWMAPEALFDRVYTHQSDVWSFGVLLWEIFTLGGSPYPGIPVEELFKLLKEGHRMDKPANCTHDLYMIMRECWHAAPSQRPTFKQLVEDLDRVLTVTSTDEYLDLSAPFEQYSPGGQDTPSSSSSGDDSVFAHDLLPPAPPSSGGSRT
Description: Time-Resolved Fluorescence Resonance Energy Transfer (TR-FRET) signal (ex340 nm.

[4] = target: FGFR4 (h) (Homo sapiens, UniProt P22455); assay: FGFR4 (enzymatic assay), TR-FRET; format: biochemical; settings: FGFR 4 pIC50, enzymatic assay
[5] = target: KDR (h) (Homo sapiens, UniProt P35968); assay: KDR (VEGFR2) (enzymatic assay), TR-FRET; format: biochemical; settings: for IC50: read-out: VEGFR 2 (KDR) pIC50 (converted)
In short: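 Low-ATP (3 μM) TR-FRET kinase assay using 500 nM Btn-Flt3 peptide and 150 ng/ml enzyme, run 2 h at room temperature with 6 mM MnCl2 and 0.1 mM Na3VO4. Signal from Eu-anti-P-Tyr/SA-XL-665 is recorded in RFU.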

[6] = target: T1, Ba/F3-FGFR1-transfected cells (Homo sapiens, UniProt P11362); assay: Ba/F3-FGFR1 (minus IL3) cellular proliferation assay, Alamar Blue; format: cell-based
T1 construct: BAF3-FGFR1 (MIN IL3) pIC50; other: minus IL3
T1 sequence (P11362 whole entry, change not shown): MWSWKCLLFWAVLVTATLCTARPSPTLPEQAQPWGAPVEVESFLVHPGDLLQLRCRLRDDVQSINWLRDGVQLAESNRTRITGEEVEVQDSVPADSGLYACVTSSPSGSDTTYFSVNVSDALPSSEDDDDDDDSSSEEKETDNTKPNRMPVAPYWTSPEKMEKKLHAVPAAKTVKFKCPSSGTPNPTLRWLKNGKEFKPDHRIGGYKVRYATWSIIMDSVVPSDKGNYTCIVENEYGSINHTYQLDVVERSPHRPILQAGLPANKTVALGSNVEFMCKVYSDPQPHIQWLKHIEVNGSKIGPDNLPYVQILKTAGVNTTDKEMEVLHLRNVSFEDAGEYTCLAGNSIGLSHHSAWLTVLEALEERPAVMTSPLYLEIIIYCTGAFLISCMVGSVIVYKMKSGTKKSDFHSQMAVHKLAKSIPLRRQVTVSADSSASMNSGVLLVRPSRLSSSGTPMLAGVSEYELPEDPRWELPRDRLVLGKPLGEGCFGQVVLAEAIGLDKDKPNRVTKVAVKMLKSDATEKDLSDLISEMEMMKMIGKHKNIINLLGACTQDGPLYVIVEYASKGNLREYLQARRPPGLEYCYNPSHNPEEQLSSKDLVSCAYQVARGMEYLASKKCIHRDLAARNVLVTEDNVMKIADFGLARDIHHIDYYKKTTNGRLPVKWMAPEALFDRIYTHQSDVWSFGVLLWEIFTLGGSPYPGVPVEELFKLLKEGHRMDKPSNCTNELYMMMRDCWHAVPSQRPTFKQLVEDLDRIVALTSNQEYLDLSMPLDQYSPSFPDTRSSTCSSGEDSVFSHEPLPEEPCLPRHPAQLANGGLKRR
In short: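 Ba/F3-FGFR1 cells, 20000/well, RPMI-1640 + 10% FBS + 2 mM L-Gln; compound in DMSO; 24 h, 37 °C, 5% CO2; Alamar Blue 4 h; RFU ex 540/em 590.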

[7] = system: Ba/F3-FGFR1-transfected cells; assay: Ba/F3-FGFR1 (plus IL3) cellular proliferation assay, counterscreen with 10 ng/ml murine IL3; format: cell-based; settings: for BAF3-FGFR1 (PLUS IL3) pIC50: plus IL3 (10 ng/ml murine IL3, counterscreen); for IC50: read-out: BAF3-FGFR1 (PLUS IL3) pIC50 (converted)
In short: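 Proliferation read-out: resazurin-based Alamar Blue fluorescence (540/590 nm) after 4 h, following 24 h compound treatment of 20000 Ba/F3-FGFR1 cells per well in 10% FBS RPMI at 37° C. IL3 counterscreen used the same protocol plus 10 ng/ml murine IL3.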

[8] = target: T2, Ba/F3-FGFR3-transfected cells (Homo sapiens, UniProt P22607); assay: Ba/F3-FGFR3 (minus IL3) cellular proliferation assay, Alamar Blue; format: cell-based
T2 construct: BAF3-FGFR3 (MIN IL3) pIC50; other: minus IL3
T2 sequence (P22607 whole entry, change not shown): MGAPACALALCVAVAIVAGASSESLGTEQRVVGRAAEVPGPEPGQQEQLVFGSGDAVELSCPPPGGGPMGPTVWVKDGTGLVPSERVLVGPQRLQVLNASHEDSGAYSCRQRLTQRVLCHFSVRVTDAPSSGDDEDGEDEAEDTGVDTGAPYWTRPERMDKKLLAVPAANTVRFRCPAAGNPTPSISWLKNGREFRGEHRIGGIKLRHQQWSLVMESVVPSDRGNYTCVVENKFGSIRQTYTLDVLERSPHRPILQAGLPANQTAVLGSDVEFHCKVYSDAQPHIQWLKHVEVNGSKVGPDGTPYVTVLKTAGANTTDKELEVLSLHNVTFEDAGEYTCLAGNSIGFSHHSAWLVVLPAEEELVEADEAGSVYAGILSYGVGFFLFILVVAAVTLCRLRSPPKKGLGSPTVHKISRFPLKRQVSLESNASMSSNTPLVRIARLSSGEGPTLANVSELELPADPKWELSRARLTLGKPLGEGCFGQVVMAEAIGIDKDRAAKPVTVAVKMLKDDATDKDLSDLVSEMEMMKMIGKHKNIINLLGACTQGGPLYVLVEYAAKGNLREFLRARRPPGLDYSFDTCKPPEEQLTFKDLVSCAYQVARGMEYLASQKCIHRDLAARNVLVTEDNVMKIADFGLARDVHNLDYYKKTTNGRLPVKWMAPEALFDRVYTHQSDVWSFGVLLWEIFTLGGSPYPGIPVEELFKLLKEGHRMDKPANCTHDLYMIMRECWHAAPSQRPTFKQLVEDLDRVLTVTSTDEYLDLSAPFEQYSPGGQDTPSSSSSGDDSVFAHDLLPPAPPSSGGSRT
In short: (§1)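 FGFR3-Ba/F3, 20000 cells/well, RPMI-1640 + 10% FBS, no phenol red; cpd in DMSO; 24 h, 37° C/5% CO2. Alamar Blue 4 h, RFU ex540/em590. Counterscreen: + murine IL3 10 ng/ml.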

[9] = system: Ba/F3-FGFR3-transfected cells; assay: Ba/F3-FGFR3 (plus IL3) cellular proliferation assay, counterscreen with 10 ng/ml murine IL3; format: cell-based; settings: for BAF3-FGFR3 (PLUS IL3) pIC50: plus IL3 (10 ng/ml murine IL3, counterscreen); for IC50: read-out: BAF3-FGFR3 (PLUS IL3) pIC50 (converted)
In short: as §1

[10] = target: T3, Ba/F3-KDR-transfected cells (Homo sapiens, UniProt P35968); assay: Ba/F3-KDR (minus IL3) cellular proliferation assay, Alamar Blue; format: cell-based
T3 construct: BAF3-KDR (MIN IL3) pIC50; other: minus IL3
T3 sequence (P35968 whole entry, change not shown): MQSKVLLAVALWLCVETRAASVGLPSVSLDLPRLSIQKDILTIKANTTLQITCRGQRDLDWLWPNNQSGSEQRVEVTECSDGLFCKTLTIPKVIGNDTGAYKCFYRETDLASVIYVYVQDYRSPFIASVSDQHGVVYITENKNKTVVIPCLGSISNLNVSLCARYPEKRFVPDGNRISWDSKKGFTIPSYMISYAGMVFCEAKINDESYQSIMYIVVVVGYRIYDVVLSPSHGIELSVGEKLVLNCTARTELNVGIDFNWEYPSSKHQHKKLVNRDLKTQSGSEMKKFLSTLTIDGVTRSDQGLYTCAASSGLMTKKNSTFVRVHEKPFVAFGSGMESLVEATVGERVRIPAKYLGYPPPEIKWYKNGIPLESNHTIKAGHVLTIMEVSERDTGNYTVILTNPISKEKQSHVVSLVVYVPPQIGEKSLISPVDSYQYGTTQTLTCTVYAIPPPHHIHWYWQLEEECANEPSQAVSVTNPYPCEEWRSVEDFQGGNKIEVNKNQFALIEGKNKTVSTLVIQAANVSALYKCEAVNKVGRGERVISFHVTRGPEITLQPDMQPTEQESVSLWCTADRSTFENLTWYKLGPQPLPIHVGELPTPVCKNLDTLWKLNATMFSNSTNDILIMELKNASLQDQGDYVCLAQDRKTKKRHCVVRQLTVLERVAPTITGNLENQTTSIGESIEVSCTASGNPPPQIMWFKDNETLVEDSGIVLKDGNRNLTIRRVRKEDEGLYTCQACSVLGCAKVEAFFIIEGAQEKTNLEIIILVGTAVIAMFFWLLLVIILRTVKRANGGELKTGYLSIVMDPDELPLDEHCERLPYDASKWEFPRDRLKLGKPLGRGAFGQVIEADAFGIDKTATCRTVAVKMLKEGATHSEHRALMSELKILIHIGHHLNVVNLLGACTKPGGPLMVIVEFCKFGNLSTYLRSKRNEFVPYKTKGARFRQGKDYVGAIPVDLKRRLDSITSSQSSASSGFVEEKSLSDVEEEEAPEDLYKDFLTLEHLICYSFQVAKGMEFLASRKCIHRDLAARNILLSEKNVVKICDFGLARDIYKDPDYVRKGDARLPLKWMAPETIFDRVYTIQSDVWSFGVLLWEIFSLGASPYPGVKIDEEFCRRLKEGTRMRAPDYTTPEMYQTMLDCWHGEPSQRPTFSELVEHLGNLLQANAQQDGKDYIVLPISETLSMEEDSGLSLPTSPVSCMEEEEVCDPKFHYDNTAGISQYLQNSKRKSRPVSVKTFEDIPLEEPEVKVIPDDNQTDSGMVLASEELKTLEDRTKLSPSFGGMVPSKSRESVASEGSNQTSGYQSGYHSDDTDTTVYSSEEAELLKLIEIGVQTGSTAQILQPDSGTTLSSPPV
In short: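 Cells grown with test compound at 37° C and 5% CO2 for 24 hours were given a resazurin/ferricyanide/ferrocyanide reagent for 4 hours before fluorescence (540/590 nm) was recorded.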

[11] = system: Ba/F3-KDR-transfected cells; assay: Ba/F3-KDR (plus IL3) cellular proliferation assay, counterscreen with 10 ng/ml murine IL3; format: cell-based; settings: for BAF3-KDR (PLUS IL3) pIC50: plus IL3 (10 ng/ml murine IL3, counterscreen); for IC50: read-out: BAF3-KDR (PLUS IL3) pIC50 (converted)
Protocol: Ba/F3-KDR (Minus IL3 or Plus IL3) (Cellular Proliferation Assay)
In a 384 well plate, 100 n1 of compound dilution in DMSO was sprayed before adding 50 μl cell culture medium (phenol red free RPMI-1640, 10% FBS, 2 mM L-Glutamine and 50 μg/ml Gentamycin) containing 20000 cells per well of Ba/F3-KDR-transfected cells. Cells were put in an incubator at 37° C. and 5% CO2. After 24 hours, 10 μl of Alamar Blue solution (0.5 mM K3Fe(CN)6, 0.5 mM K4Fe(CN)6, 0.15 mM Resazurin and 100 mM Phosphate Buffer) was added to the wells, incubated for 4 hours at 37° C. and 5% CO2 before RFU's (Relative Fluorescence Units) (ex. 540 nm., em. 590 nm.) were measured in a fluororescence plate reader.
As a counterscreen the same experiment was performed in the presence of 10 ng/ml murine IL3.

[12] = target: Ba/F3-FGFR4-transfected cells (Homo sapiens, UniProt P22455); assay: Ba/F3-FGFR4 cellular proliferation assay, Alamar Blue; format: cell-based
Sequence of Ba/F3-FGFR4-transfected cells (P22455 whole entry, change not shown): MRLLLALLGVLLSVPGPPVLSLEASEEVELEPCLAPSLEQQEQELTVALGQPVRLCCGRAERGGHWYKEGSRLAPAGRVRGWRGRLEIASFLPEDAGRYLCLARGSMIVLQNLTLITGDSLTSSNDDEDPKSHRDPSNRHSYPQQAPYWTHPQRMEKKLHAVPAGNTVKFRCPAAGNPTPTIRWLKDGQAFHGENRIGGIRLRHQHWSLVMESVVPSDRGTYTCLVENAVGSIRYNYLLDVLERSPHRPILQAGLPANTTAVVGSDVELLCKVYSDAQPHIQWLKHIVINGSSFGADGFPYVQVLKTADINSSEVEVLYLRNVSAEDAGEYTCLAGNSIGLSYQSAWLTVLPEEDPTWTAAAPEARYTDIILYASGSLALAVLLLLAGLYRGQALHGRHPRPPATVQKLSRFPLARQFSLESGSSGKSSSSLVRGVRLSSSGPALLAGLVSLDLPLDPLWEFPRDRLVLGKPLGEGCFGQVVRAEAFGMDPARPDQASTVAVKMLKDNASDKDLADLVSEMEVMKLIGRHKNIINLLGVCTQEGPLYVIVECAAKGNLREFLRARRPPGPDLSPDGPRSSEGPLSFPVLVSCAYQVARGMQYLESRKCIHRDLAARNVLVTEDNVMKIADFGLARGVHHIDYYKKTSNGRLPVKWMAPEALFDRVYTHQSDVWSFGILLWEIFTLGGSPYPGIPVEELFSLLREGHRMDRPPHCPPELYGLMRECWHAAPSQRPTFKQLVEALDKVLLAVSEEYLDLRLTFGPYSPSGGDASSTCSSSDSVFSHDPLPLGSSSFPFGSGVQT
In short: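 Here, cells seeded at 20000 per well were treated 24 hours with compound, then given a 4-hour Alamar Blue incubation at 37° C before RFU measurement at ex. 540 nm and em. 590 nm.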

[13] = average values if tested multiple times

Row | SMILES | IC50 [1, 13] [nM] | IC50 [2, 13] [nM] | IC50 [3, 13] [nM] | IC50 [4, 13] [nM] | IC50 [5, 13] [nM] | BAF3-FGFR1 (MIN IL3) pIC50 [6] | BAF3-FGFR1 (PLUS IL3) pIC50 [7] | BAF3-FGFR3 (MIN IL3) pIC50 [8] | BAF3-FGFR3 (PLUS IL3) pIC50 [9] | BAF3-KDR (MIN IL3) pIC50 [10] | BAF3-KDR (PLUS IL3) pIC50 [11] | BAF3-FGFR4 pIC50 [12] | IC50 [7] [nM] | IC50 [9] [nM] | IC50 [11] [nM] | IC50 [1] [nM] | IC50 [2] [nM] | IC50 [3] [nM] | IC50 [4] [nM] | IC50 [5] [nM] | other results
1 | COc1cc(OC)c(F)c(N(CC2CCC(=O)N2)c2ccc3ncc(-c4cnn(C)c4)nc3n2)c1 (stereo not drawn) [Compound 52] | 2.57 | 2.69 | 1.95 | 4.79 | 25.1 | 7.10 | <5 | 7.10 | <5 | 5.56 | <5 | 6.55 | – | – | – | – | – | – | – | – | –
2 | COc1cc(/N=c2\ccc3ncc(-c4cnn(C)c4)nc3n2CC2CCC(=O)N2)c(F)c(OC)c1 (stereo not drawn) [Compound 53] | 1.2 | 1.62 | 1.1 | 3.31 | 12.3 | 7.47 | <5 | 7.54 | <5 | 5.99 | <5 | 6.85 | – | – | – | – | – | – | – | – | –
3 | COc1cc(OC)c(F)c(N(CC(O)COC(C)C)c2ccc3ncc(-c4cnn(C)c4)nc3n2)c1F (stereo not drawn) [Compound 61] | 2.24 | 4.17 | 3.98 | 4.07 | 16.6 | 7.56 | <5 | 7.87 | <5 | 6.29 | <5 | 7.56 | – | – | – | – | – | – | – | – | –
4 | COc1cc(OC)c(F)c(N(CC(O)COC(C)C)c2ccc3ncc(-c4cnn(C)c4)nc3n2)c1F (stereo not drawn) [Compound 62] | 4.07 | 7.76 | 5.5 | 3.31 | 32.4 | 8.06 | <5 | 8.10 | <5 | 6.21 | <5 | 7.92 | – | – | – | – | – | – | – | – | –
5 | CNCCn1/c(=N/c2c(F)ccc(OC)c2Cl)ccc2ncc(-c3cnn(C)c3)nc21 [Compound 70] | 39.8 | 23.4 | 38.9 | 93.3 | 537 | 5.75 | – | 6.31 | – | <5 | – | 5.69 | > 10000 | > 10000 | > 10000 | – | – | – | – | – | –
6 | COc1cc(OC)c(F)c(N(Cc2nc3ccccc3[nH]2)c2ccc3ncc(-c4cnn(C)c4)nc3n2)c1 [Compound 80] | 1.35 | 2.63 | 1.82 | 1.55 | 10.2 | 7.76 | – | 8.08 | – | 5.79 | – | 7.36 | > 10000 | > 10000 | > 10000 | – | – | – | – | – | –
7 | CNCCn1/c(=N/c2c(Cl)c(OC)cc(OC)c2Cl)ccc2ncc(-c3cnn(C)c3)nc21 [Compound 82] | 11.7 | 10.7 | 14.1 | 182 | 490 | 6.67 | – | ~6.61 | – | <5 | – | 5.43 | > 10000 | > 10000 | > 10000 | – | – | – | – | – | –
8 | COc1ccc(Cl)c(N(CC2CCC(=O)N2)c2ccc3ncc(-c4cnn(C)c4)nc3n2)c1Cl (stereo not drawn) [Compound 94] | – | – | – | – | – | 5.52 | <5 | ~5.56 | <5 | <5 | <5 | <5 | – | – | – | 97.7 | 49 | 81.3 | 676 | – | VEGFR 2 (KDR) pIC50 [5]: <6
9 | CNCCn1/c(=N/c2c(F)c(OC)cc(OC)c2F)ccc2ncc(-c3cn[nH]c3)nc21 [Compound 121] | – | – | – | – | – | 7.38 | – | 6.88 | – | 5.25 | – | 6.08 | > 10000 | > 10000 | > 10000 | 1.62 | 2.57 | 1 | 2.95 | 26.9 | –
10 | COc1cc(/N=c2\ccc3ncc(-c4cnn(C)c4)nc3n2CCCN2CCCC2=O)cc(OC)c1 [Compound 133] | – | – | – | – | – | 7.30 | – | ~7.58 | – | 6.39 | – | 6.73 | > 10000 | > 10000 | > 10000 | 1 | 1.23 | 0.724 | 1.58 | 5.89 | –
11 | COc1cc(/N=c2\ccc3ncc(-c4cnn(C)c4)nc3n2CCN2CCCC2=O)cc(OC)c1 [Compound 150] | – | – | – | – | – | 6.80 | – | ~7.06 | – | 5.34 | – | 6.18 | > 10000 | > 10000 | > 10000 | 3.8 | 2.51 | 3.55 | 14.8 | 30.9 | –
12 | COc1cc(/N=c2\ccc3ncc(-c4cnn(C)c4)nc3n2CC2CCC(=O)N2C)c(F)c(OC)c1 (stereo not drawn) [Compound 160] | – | – | – | – | – | 7.58 | <5 | 7.20 | <5 | 5.89 | <5 | 6.99 | – | – | – | 1.17 | 1.82 | 1.07 | ~3.39 | 7.24 | –
13 | COc1cc(OC)c(F)c(N(CC2CCC(=O)N2C)c2ccc3ncc(-c4cnn(C)c4)nc3n2)c1 (stereo not drawn) [Compound 161] | – | – | – | – | – | 6.26 | <5 | 6.08 | <5 | <5 | <5 | 5.78 | – | – | – | 20 | 10 | 6.92 | 37.2 | 126 | –
